Measurements reported in patent publication US12599136B2, “Substituted isophthalic acid diamides and their use as herbicides” (Bayer Aktiengesellschaft, priority 2020, dated 2026).

Key:
Type in all cases: in vivo
Amaranthus retroflexus [1] = assay: Pre-emergence herbicidal action against AMARE; conditions: visual score after 3 weeks vs untreated controls
Procedure, shortened: (§1)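 Pre-emergence soil-surface spray of formulated compound (WP or EC; 600 to 800 l/ha; 0.2% wetting agent) over seeds sown in sandy loam. After 3 weeks under greenhouse conditions, damage is estimated visually in percent against untreated plants.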

Alopecurus myosuroides [2] = assay: Pre-emergence herbicidal action against ALOMY; conditions: 80 g/ha; visual score after 3 weeks vs untreated controls
Procedure, shortened: as §1

Viola tricolor [3] = assay: Pre-emergence herbicidal action against VIOTR
Procedure, shortened: as §1

Viola tricolor [4] = assay: Post-emergence herbicidal action against VIOTR; conditions: 20 g/ha
Procedure, shortened: (§2)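 Greenhouse plants in sandy loam were sprayed at the one-leaf stage, 2 to 3 weeks after sowing, with WP or EC formulations as aqueous suspension or emulsion (600 to 800 l/ha water, 0.2% wetting agent). Visual damage was scored about 3 weeks later versus untreated controls, 0% = like control, 100% = dead.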

Digitaria sanguinalis [5] = assay: Pre-emergence herbicidal action against DIGSA
Procedure, shortened: as §1

Avena fatua [6] = assay: Pre-emergence herbicidal action against AVEFA; conditions: 80 g/ha; visual score after 3 weeks vs untreated controls
Procedure, shortened: as §1

Abutilon theophrasti [7] = assay: Pre-emergence herbicidal action against ABUTH; conditions: visual score after 3 weeks vs untreated controls
Procedure, shortened: as §1

Echinochloa crus-galli [8] = assay: Post-emergence herbicidal action against ECHCG; conditions: visual assessment about 3 weeks after treatment
Procedure, shortened: as §2

Setaria viridis [9] = assay: Pre-emergence herbicidal action against SETVI; conditions: 80 g/ha
Procedure, shortened: as §1

Echinochloa crus-galli [10] = assay: Pre-emergence herbicidal action against ECHCG; conditions: 80 g/ha; visual score after 3 weeks vs untreated controls
Procedure, shortened: as §1

Veronica persica [11] = assay: Post-emergence herbicidal action against VERPE; conditions: 20 g/ha, visual assessment about 3 weeks after treatment
Procedure, shortened: as §2

Abutilon theophrasti [12] = assay: Post-emergence herbicidal action against ABUTH
Procedure, shortened: as §2

Digitaria sanguinalis [13] = assay: Post-emergence herbicidal action against DIGSA
Protocol: Seeds of monocotyledonous and dicotyledonous weed and crop plants are laid out in sandy loam soil in wood-fiber pots, covered with soil and cultivated in a greenhouse under good growth conditions. 2 to 3 weeks after sowing, the test plants are treated at the one-leaf stage. The compounds of the invention, formulated in the form of wettable powders (WP) or as emulsion concentrates (EC), are then sprayed onto the green parts of the plants in the form of an aqueous suspension or emulsion at a water application rate equivalent to 600 to 800 l/ha, with addition of 0.2% wetting agent. After the test plants have been left to stand in the greenhouse under optimal growth conditions for about 3 weeks, the action of the preparations is assessed visually in comparison to untreated controls (herbicidal action in percent (%): 100% activity=the plants have died, 0% activity=like control plants). […] The tables below illustrate, in an illustrative manner, the post-emergence herbicidal action of the compounds of the invention, the herbicidal activity being stated in percent.

Setaria viridis [14] = assay: Post-emergence herbicidal action against SETVI; conditions: visual assessment about 3 weeks after treatment
Procedure, shortened: as §2

Matricaria inodora [15] = assay: Pre-emergence herbicidal action against MATIN; conditions: visual score after 3 weeks vs untreated controls
Procedure, shortened: as §1

Amaranthus retroflexus [16] = assay: Post-emergence herbicidal action against AMARE; conditions: visual assessment about 3 weeks after treatment
Procedure, shortened: as §2

Avena fatua [17] = assay: Post-emergence herbicidal action against AVEFA; conditions: 20 g/ha, visual assessment about 3 weeks after treatment
Procedure, shortened: as §2

Matricaria inodora [18] = assay: Post-emergence herbicidal action against MATIN; conditions: 20 g/ha, visual assessment about 3 weeks after treatment
Procedure, shortened: as §2

Alopecurus myosuroides [19] = assay: Post-emergence herbicidal action against ALOMY
Procedure, shortened: as §2

Veronica persica [20] = assay: Pre-emergence herbicidal action against VERPE; conditions: 80 g/ha
Procedure, shortened: as §1

| SMILES | Pre-emergence action against AMARE (Amaranthus retroflexus [1]; 20 g/ha) [%] | Pre-emergence action against AMARE (Amaranthus retroflexus [1]; 80 g/ha) [%] | Pre-emergence action against ALOMY (Alopecurus myosuroides [2]) [%] | Pre-emergence action against VIOTR (Viola tricolor [3]; 80 g/ha) [%] | Post-emergence action against VIOTR in % (Viola tricolor [4]) [%] | Pre-emergence action against DIGSA (Digitaria sanguinalis [5]; 80 g/ha) [%] | Pre-emergence action against AVEFA (Avena fatua [6]) [%] | Pre-emergence action against ABUTH (Abutilon theophrasti [7]; 20 g/ha) [%] | Pre-emergence action against ABUTH (Abutilon theophrasti [7]; 80 g/ha) [%] | Post-emergence action against ECHCG in % (Echinochloa crus-galli [8]; 20 g/ha) [%] | Pre-emergence action against SETVI (Setaria viridis [9]) [%] | Pre-emergence action against ECHCG (Echinochloa crus-galli [10]) [%] | Post-emergence action against VERPE in % (Veronica persica [11]) [%] | Post-emergence action against ABUTH (Abutilon theophrasti [12]; 5 g/ha) [%] | Post-emergence action against ABUTH (Abutilon theophrasti [12]; 20 g/ha) [%] | Post-emergence action against DIGSA in % (Digitaria sanguinalis [13]; 5 g/ha) [%] | Post-emergence action against DIGSA in % (Digitaria sanguinalis [13]; 20 g/ha) [%] | Post-emergence action against SETVI in % (Setaria viridis [14]; 20 g/ha) [%] | Pre-emergence action against MATIN (Matricaria inodora [15]; 80 g/ha) [%] | Post-emergence action against AMARE in % (Amaranthus retroflexus [16]; 20 g/ha) [%] | other results |
| --- | --- | --- | --- | --- | --- | --- | --- | --- | --- | --- | --- | --- | --- | --- | --- | --- | --- | --- | --- | --- | --- |
| Cc1c(C(=O)Nc2nnnn2C)ccc(C(F)(F)F)c1C(=O)N(C)C [Example 1-19] | 100 | 100 | 80 | 100 | 80 | 100 | 80 | 90 | 100 | 90 | 100 | 90 | 80 | 90 | 100 | 90 | 90 | 100 | 90 | 100 | Post-emergence action against SETVI in % (Setaria viridis [14]; 5 g/ha): 100% |
| CN(C(=O)c1c(C(F)(F)F)ccc(C(=O)Nc2nnnn2C)c1Cl)C1CC1 [Example 1-125] | 100 | 100 | 100 | 100 | 80 | 100 | 80 | 100 | 100 | – | 100 | 90 | 90 | – | – | – | 100 | 80 | 100 | 90 | Pre-emergence action against VIOTR (Viola tricolor [3]; 20 g/ha): 100%; Pre-emergence action against DIGSA (Digitaria sanguinalis [5]; 20 g/ha): 100%; Post-emergence action against AVEFA in % (Avena fatua [17]): 80%; Post-emergence action against MATIN in % (Matricaria inodora [18]): 80%; Post-emergence action against ALOMY (Alopecurus myosuroides [19]; 5 g/ha): 80%; Post-emergence action against ALOMY (Alopecurus myosuroides [19]; 20 g/ha): 90%; Post-emergence action against AMARE in % (Amaranthus retroflexus [16]; 5 g/ha): 80% |
| CCN(CC)C(=O)c1c(C(F)(F)F)ccc(C(=O)Nc2nnnn2C)c1Cl [Example 1-135] | 100 | 100 | 100 | 100 | 90 | 100 | 90 | 100 | 100 | 90 | 100 | 90 | – | 80 | 90 | 90 | 90 | – | 100 | 80 | Pre-emergence action against VIOTR (Viola tricolor [3]; 20 g/ha): 100%; Post-emergence action against AVEFA in % (Avena fatua [17]): 80%; Post-emergence action against ECHCG in % (Echinochloa crus-galli [8]; 5 g/ha): 80%; Post-emergence action against MATIN in % (Matricaria inodora [18]): 80%; Pre-emergence action against VERPE (Veronica persica [20]): 90%; Post-emergence action against ALOMY (Alopecurus myosuroides [19]; 5 g/ha): 80%; Post-emergence action against ALOMY (Alopecurus myosuroides [19]; 20 g/ha): 90%; Pre-emergence action against MATIN (Matricaria inodora [15]; 20 g/ha): 90%; Post-emergence action against AMARE in % (Amaranthus retroflexus [16]; 5 g/ha): 80% |
